Assays:
[1] = dosed either orally or directly into the colon of a mammal; cited from earlier work
[2] = Flow characterization of dry powders and granulations (density, Carr, Hausner, Flodex); type: physicochemical; conditions: ungranulated, no water
Source text: The flow of dry powders was characterized using a FLODEX™ Powder Flowability Index Test Instrument (Hanson Research Corporation, Chatsworth, Calif.). The instrument was equipped with a cylindrical metal reservoir, which holds the test powder prior to flow testing. The cylindrical reservoir has an inside diameter of 5.7 cm and a length of […]. The bottom end of the reservoir can be closed with removable metal discs. Each disc has a round orifice centered in the disc. Orifice diameters range from 4 mm to 10 mm in 1 mm increments, and from 10 mm to 34 mm in 2 mm increments. Prior to flow testing, the orifice is blocked. Powder is then placed over the blocked orifice. When the orifice is unblocked, powder can flow through the orifice under the force of gravity if the orifice diameter is sufficiently large. Powder that flows through small orifices is considered to have flow properties useful for tableting. For example, a Flodex measurement (Flodex) of less than about 24 mm is typically used for high-speed tableting operations at commercial scale. A Flodex less than about 20 mm is useful for high-speed tableting operations. A Flodex of 18 mm or less is considered especially useful for high throughput tableting operations.
The Flodex is determined by first gently filling the reservoir while the orifice at the bottom is blocked with approximately 70 cc of test powder, while avoiding severe piling, and without vibrating or tapping the powder bed. Next, the orifice is unblocked. This can be accomplished by opening a shutter that is supplied with the instrument. Alternatively, if a shutter is not used, the powder-filled reservoir fitted with a disc can be set on a dry, flat surface to block the orifice. Then, slowly and evenly, the reservoir is lifted to allow the powders to flow. In either procedure, if the powder flows through the orifice, a clear channel is left within the powder bed. […] The flow test is conducted with various orifice sizes until the minimum orifice size for good flow is identified, which is referred to as the Flodex.
The impact of the amount of water used during high shear wet granulation on the strength of granules was determined. Granulations containing either 98 wt-% compound (1), 1 wt-% METHOCELT™-E4M and 1 wt-% SLS, or 97 wt-% compound (1) and 3 wt-% METHOCEL™-E4M, were prepared using from 20 wt-% to 30 wt-% water, dried, and the granule strength measured by determining the air pressure at which the particles began to fracture using a Sympatec particle analyzer (QicPic/RODOS-L/VIBRI-L, Sympatec GmbH, Clausthal-Zellerfeld, DE).
The Main Blend contained 98 wt-% compound (1), 1 wt-% METHOCELT™-E4M, and 1 wt-% SLS. Blend D contained 90 wt-% granules blended with 8 wt-% METHOCEL™-K100M and 2 wt-% magnesium stearate, and Blend E contained 89 wt-% granules blended with 8 wt-% METHOCEL™-K100M and 3 wt-% magnesium stearate and were prepared as described in Example 4.

CC(OC(=O)NCC1(CC(=O)O)CCCCC1)OC(=O)C(C)C (stereo not drawn) [Compound (1), 1-([(α-Isobutanoyloxyethoxy)carbonyl]aminomethyl)-1-cyclohexane acetic acid]
bioavailability as gabapentin [1]: high bioavailability as gabapentin
Bulk Density [2]: 0.329 gm/mL
Carr Index [2]: 27.0
Flodex [2]: >34 mm
Hausner Ratio [2]: 1.37
Tap Density [2]: 0.450 gm/mL

Source: patent US20100226981A1, “ORAL DOSAGE FORMS HAVING A HIGH LOADING OF A GABAPENTIN PRODRUG” (XenoPort, Inc., priority 2009, published 2010)
